The test addresses T1, DLK (Homo sapiens, UniProt Q12852).
T1 sequence (Q12852 1-520): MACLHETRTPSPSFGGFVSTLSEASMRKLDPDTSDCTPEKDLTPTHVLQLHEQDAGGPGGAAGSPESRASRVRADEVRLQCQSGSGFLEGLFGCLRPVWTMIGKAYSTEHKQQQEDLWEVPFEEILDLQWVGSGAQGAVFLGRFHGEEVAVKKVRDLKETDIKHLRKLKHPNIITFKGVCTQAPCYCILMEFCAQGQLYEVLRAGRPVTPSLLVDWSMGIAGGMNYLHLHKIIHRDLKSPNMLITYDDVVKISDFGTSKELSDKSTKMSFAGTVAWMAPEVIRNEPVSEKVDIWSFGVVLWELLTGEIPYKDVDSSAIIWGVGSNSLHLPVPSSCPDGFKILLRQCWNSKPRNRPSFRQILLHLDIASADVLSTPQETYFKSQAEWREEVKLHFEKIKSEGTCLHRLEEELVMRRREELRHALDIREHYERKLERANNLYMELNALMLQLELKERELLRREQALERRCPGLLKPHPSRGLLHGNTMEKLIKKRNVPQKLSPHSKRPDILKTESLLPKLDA
The conditions noted are these: read-out: DLK (Ki) μM; TR-FRET; 5 nM GST-tagged DLK (catalytic domain aa 1-520), 40 nM HIS-MKK4 K131M substrate, 30 μM ATP, 60 minutes.

With `CC(C)n1nc(-c2cnc(N)c(C(F)(F)F)c2)cc1C(C)(C)O` [Compound 2, 2-(3-(6-amino-5-(trifluoromethyl)py-ridin-3-yl)-1-isopropyl-1H-pyrazol-5-yl)propan-2-ol], the Ki turned out to be 0.11 µM. As for `Nc1ncc(-c2cc([C@H]3[C@@H]4CN(C5COC5)C[C@@H]43)n(C3CCC3)n2)cc1OC(F)(F)F` [Compound 163, 5-(1-cyclobutyl-5-((1R,5S,6r)-3-(oxe-tan-3-yl)-3-azabicyclo[3.1.0]hexan-6-yl)-1H-pyrazol-3-yl)-3-(trifluorometh-oxy)pyridin-2-amine], the inhibition constant (Ki) came to 0.013 µM. Take `FC1(F)CCC(n2nc(-c3cnc4[nH]cc(C(F)(F)F)c4c3)cc2C2CN(C3COC3)C2)C1` (centres unmarked) [Compound 56, 5-(1-(3,3-difluorocyclopentyl)-5-(1-(oxetan-3-yl)azetidin-3-yl)-1H-pyrazol-3-yl)-3-(trifluoromethyl)-1H-pyrrolo[2,3-b]pyridine]: the Ki worked out at 0.013 µM. Regarding `COCCN1C[C@@H]2[C@H](C1)[C@H]2c1cc(-c2cnc(N)c(Cl)c2)nn1CC1CC1(F)F` (stereo partly drawn) [Compound 121, 3-chloro-5-(1-((2,2-difluorocyclopro-pyl)methyl)-5-((1R,5S,6r)-3-(2-meth-oxyethyl)-3-azabicyclo[3.1.0]hexan-6-yl)-1H-pyrazol-3-yl)pyridin-2-amine], the inhibition constant Ki was 0.09 µM.

As to `CC(C)Oc1cc(-c2cc(C3CCN(C4COC4)CC3)n(C3CCC(F)(F)C3)n2)cnc1N` (centres unmarked) [Compound 86, 5-(1-(3,3-difluorocyclopentyl)-5-(1-(oxetan-3-yl)piperidin-4-yl)-1H-pyra-zol-3-yl)-3-isopropoxypyridin-2-amine], the Ki stood at 0.91 µM. Take `COc1cc(-c2cc(C3CCN(C4COC4)CC3)n(C(C)C)n2)cnc1N` [Compound 89, 5-(1-isopropyl-5-(1-(oxetan-3-yl)pipe-ridin-4-yl)-1H-pyrazol-3-yl)-3-meth-oxypyridin-2-amine]: the Ki was found to be 0.14 µM. For the molecule `CC(C)n1nc(-c2cnc3[nH]cc(C(F)(F)F)c3c2)cc1C1CCN(C)CC1` [Compound 40, 5-(1-isopropyl-5-(1-methylpiperidin-4-yl)-1H-pyrazol-3-yl)-3-(trifluoro-methyl)-1H-pyrrolo[2,3-b]pyridine], the Ki turned out to be 0.00017 µM. As for `CC(C)n1nc(-c2cnc(N)c(C(F)(F)F)c2)cc1C1CCN(C2COC2)CC1` [Compound 76, 5-(1-isopropyl-5-(1-(oxetan-3-yl)piperidin-4-yl)-1H-pyrazol-3-yl)-3-(trifluoromethyl)pyridin-2-amine], the inhibitory constant (Ki) was 0.15 µM. Turning to `Cc1c[nH]c2ncc(-c3cc(C4CCN(C5COC5)C4)n(C(C)C)n3)cc12` (centres unmarked) [Compound 64, 5-(1-isopropyl-5-(1-(oxetan-3-yl)pyr-rolidin-3-yl)-1H-pyrazol-3-yl)-3-meth-yl-1H-pyrrolo[2,3-b]pyridine], the Ki worked out at 0.0045 µM. Next, `CCOc1cc(-c2cc(C3CCN(C4COC4)CC3)n(C3CCC(F)(F)C3)n2)cnc1N` (centres unmarked) [Compound 85, 5-(1-(3,3-difluorocyclopentyl)-5-(1-(oxetan-3-yl)piperidin-4-yl)-1H-pyra-zol-3-yl)-3-ethoxypyridin-2-amine]: 0.99 µM; `Nc1ncc(-c2cc(C3CCN(C4COC4)CC3)n(C3CCCC3)n2)cc1Cl` [Compound 71, 3-chloro-5-(1-cyclopentyl-5-(1-(oxetan-3-yl)piperidin-4-yl)-1H-pyrazol-3-yl)pyridin-2-amine]: 0.27 µM; `COCCN1C[C@@H]2[C@H](C1)[C@H]2c1cc(-c2cnc(N)c(C(F)(F)F)c2)nn1CC1CCC1` [Compound 124, 5-(1-(cyclobutylmethyl)-5-((1R,5S,6r)-3-(2-methoxyethyl)-3-azabicyclo [3.1.0]hexan-6-yl)-1H-pyrazol-3-yl)-3-(trifluoromethyl)pyridin-2-amine]: 0.027 µM. Turning to `CC(C)n1nc(-c2cnc3[nH]cc(C(F)(F)F)c3c2)cc1C1CN(C2COC2)C1` [Compound 54, 5-(1-isopropyl-5-(1-(oxetan-3-yl)aze-tidin-3-yl)-1H-pyrazol-3-yl)-3-(trifluoro-methyl)-1H-pyrrolo[2,3-b]pyridine], the Ki was found to be 0.00048 µM. For the molecule `CC(C)Oc1cc(-c2cc(C3CCN(C4COC4)CC3)n(C(C)C)n2)cnc1N` [Compound 84, 3-isopropoxy-5-(1-isopropyl-5-(1-(oxe-tan-3-yl)piperidin-4-yl)-1H-pyrazol-3-yl)pyridin-2-amine], the Ki worked out at 0.26 µM.

Take `CC(C)n1nc(-c2cnc3[nH]cc(C#N)c3c2)cc1C1CCN(CC(F)(F)F)CC1` [Compound 46, 5-(1-isopropyl-5-(1-(2,2,2-trifluoroethyl)piperidin-4-yl)-1H-pyrazol-3-yl)-1H-pyrrolo[2,3-b]pyridine-3-carbonitrile]: the Ki came out at 0.028 µM.

`CC(C)c1cc(-c2cnc3[nH]cc(C(F)(F)F)c3c2)nn1C1CN(C2COC2)C1` [Compound 1, 5-(5-isopropyl-1-(1-(oxetan-3-yl)azetidin-3-yl)-1H-pyrazol-3-yl)-3-(trifluoromethyl)-1H-pyrrolo[2,3-b]pyridine]: the Ki came to 0.034 µM. For the molecule `COCCN1C[C@@H]2[C@H](C1)[C@H]2c1cc(-c2cnc(N)c(Cl)c2)nn1CC1CC1` [Compound 123, 3-chloro-5-(1-(cyclopropylmethyl)-5-((1R,5S,6r)-3-(2-methoxyethyl)-3-aza-bicyclo[3.1.0]hexan-6-yl)-1H-pyra-zol-3-yl)pyridin-2-amine], the Ki is 0.027 µM. Consider `Cc1c[nH]c2ncc(-c3cc(C4CCN(C5COC5)CC4)n(C(C)C)n3)cc12` [Compound 69, 5-(1-isopropyl-5-(1-(oxetan-3-yl)pipe-ridin-4-yl)-1H-pyrazol-3-yl)-3-meth-yl-1H-pyrrolo[2,3-b]pyridine], for which the inhibition constant (Ki) was determined as 0.0037 µM. For `CC(C)n1nc(-c2cnc(N)c(C3CC3)c2)cc1C1CCN(C2COC2)CC1` [Compound 98, 3-cyclopropyl-5-(1-isopropyl-5-(1-(oxe-tan-3-yl)piperidin-4-yl)-1H-pyra-zol-3-yl)pyridin-2-amine], the Ki is 0.36 µM.

As for `CC(C)Oc1cc(-c2cc([C@H]3[C@@H]4CN(C5COC5)C[C@@H]43)n(C(C)C)n2)cnc1N` [Compound 146, 3-isopropoxy-5-(1-isopropyl-5-((1R,5S,6r)-3-(oxetan-3-yl)-3-azabicyclo [3.1.0]hexan-6-yl)-1H-pyrazol-3-yl) pyridin-2-amine], the Ki was 0.014 µM.

As to `CC(=O)N1CCC(c2cc(-c3cnc4[nH]cc(C)c4c3)nn2C(C)C)CC1` [Compound 49, 1-(4-(1-isopropyl-3-(3-methyl-1H-pyrrolo[2,3-b]pyridin-5-yl)-1H-pyrazol-5-yl)piperidin-1-yl)ethanone], the Ki was 0.019 µM. Take `COCCN1C[C@@H]2[C@H](C1)[C@H]2c1cc(-c2cnc(N)c(Cl)c2)nn1C(C)C` [Compound 118, 3-chloro-5-(1-isopropyl-5-((1R,5S,6r)-3-(2-methoxyethyl)-3-azabicyclo[3.1.0]hexan-6-yl)-1H-pyrazol-3-yl) pyridin-2-amine]: the Ki worked out at 0.034 µM. As for `CC(C)n1nc(-c2cnc(N)c(C(F)(F)F)c2)cc1[C@H]1[C@@H]2CN(CC(F)F)C[C@@H]21` [Compound 109, 5-(5-((1R,5S,6r)-3-(2,2-difluoroethyl)-3-azabicyclo[3.1.0]hexan-6-yl)-1-isopropyl-1H-pyrazol-3-yl)-3-(trifluoro-methyl)pyridin-2-amine], the Ki was determined as 0.001 µM. As for `CC(C)n1nc(-c2cnc3[nH]cc(C(F)(F)F)c3c2)cc1C1CCN(C2CCC2)CC1` [Compound 101, 5-(5-(1-cyclobutylpiperidin-4-yl)-1-iso-propyl-1H-pyrazol-3-yl)-3-(trifluoro-methyl)-1H-pyrrolo[2,3-b]pyridine], the Ki was 0.001 µM. The figure for `COCC(C)N1C[C@@H]2[C@H](C1)[C@H]2c1cc(-c2cnc(N)c(C(F)(F)F)c2)nn1C(C)C` (stereo partly drawn) [Compound 129, 5-(1-isopropyl-5-((1R,5S,6r)-3-(1-meth-oxypropan-2-yl)-3-azabicyclo[3.1.0]hexan-6-yl)-1H-pyrazol-3-yl)-3-(trifluoromethyl)pyridin-2-amine] is 0.0013 µM. With `CC(=O)N1CC(c2cc(-c3cnc4[nH]cc(C(F)(F)F)c4c3)nn2CC2CC2)C1` [Compound 8, 1-(3-(1-(cyclopropylmethyl)-3-(3-(trifluoromethyl)-1H-pyrrolo[2,3-b]pyridin-5-yl)-1H-pyrazol-5-yl)azetidin-1-yl)ethanone], the Ki amounted to 0.01 µM. Turning to `COc1cc(-c2cc([C@H]3[C@@H]4CN(C5COC5)C[C@@H]43)n(C(C)C)n2)cnc1N` [Compound 145, 5-(1-isopropyl-5-((1R,5S,6r)-3-(oxetan-3-yl)-3-azabicyclo[3.1.0]hexan-6-yl)-1H-pyrazol-3-yl)-3-methoxy-pyridin-2-amine], the Ki was 0.0074 µM. Take `Nc1ncc(-c2cc([C@H]3[C@@H]4CN(C5COC5)C[C@@H]43)n(C3CCCC3)n2)cc1C1CC1` [Compound 139, 5-(1-cyclopentyl-5-((1R,5S,6r)-3-(oxe-tan-3-yl)-3-azabicyclo[3.1.0]hexan-6-yl)-1H-pyrazol-3-yl)-3-cyclopro-pylpyridin-2-amine]: the Ki was found to be 0.037 µM. With `CC(C)n1nc(-c2cnc(N)c(OC(F)(F)F)c2)cc1C(C)(C)C#N` [Compound 6, 2-(3-(6-amino-5-(trifluoromethoxy)pyridin-3-yl)-1-isopropyl-1H-pyrazol-5-yl)-2-methylpropanenitrile], the Ki was found to be 0.14 µM.

The values above are taken from patent US10028942B2 (priority 2013, dated 2018).
